{"source": "paper PMC10924921", "about": "“Mi-2β promotes immune evasion in melanoma by activating EZH2 methylation” (Nature Communications, 2024)", "test_in_all_cases": "biochemical", "set-up_in_all_cases": "KINOMEscan active-site competition binding panel (468 kinase assays), per cent of control at 1000 nM", "conditions_in_all_cases": "KINOMEscan per cent of control (binding competition); read-out: Percent Control", "key": {"[1]": {"molecular_target": "T1, PAK7 (Homo sapiens, UniProt Q9P286)", "T1 construct": "gene PAK5", "excerpt": "(§1) Figure S7 / Percent Control"}, "[2]": {"molecular_target": "CAMK4 (Homo sapiens, UniProt Q16566)", "sequence (Q16566 whole entry)": "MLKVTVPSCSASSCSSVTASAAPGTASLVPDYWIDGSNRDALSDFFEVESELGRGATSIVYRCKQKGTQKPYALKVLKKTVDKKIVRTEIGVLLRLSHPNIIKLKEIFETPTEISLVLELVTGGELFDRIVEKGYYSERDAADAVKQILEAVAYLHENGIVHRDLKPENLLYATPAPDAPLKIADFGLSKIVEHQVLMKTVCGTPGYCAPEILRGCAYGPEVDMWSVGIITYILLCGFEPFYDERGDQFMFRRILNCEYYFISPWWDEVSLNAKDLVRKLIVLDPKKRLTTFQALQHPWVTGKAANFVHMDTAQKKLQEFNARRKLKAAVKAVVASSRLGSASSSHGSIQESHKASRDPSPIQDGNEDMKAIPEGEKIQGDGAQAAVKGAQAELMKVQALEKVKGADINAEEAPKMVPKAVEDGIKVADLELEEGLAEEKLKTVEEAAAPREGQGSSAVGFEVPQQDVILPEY", "excerpt": "as §1"}, "[3]": {"molecular_target": "MAP4K4 (Homo sapiens, UniProt O95819)", "excerpt": "as §1"}, "[4]": {"molecular_target": "T2, PIP5K2B (Homo sapiens, UniProt P78356)", "T2 construct": "gene PIP4K2B", "excerpt": "as §1"}, "[5]": {"molecular_target": "PDPK1 (Homo sapiens, UniProt O15530)", "sequence (O15530 whole entry)": "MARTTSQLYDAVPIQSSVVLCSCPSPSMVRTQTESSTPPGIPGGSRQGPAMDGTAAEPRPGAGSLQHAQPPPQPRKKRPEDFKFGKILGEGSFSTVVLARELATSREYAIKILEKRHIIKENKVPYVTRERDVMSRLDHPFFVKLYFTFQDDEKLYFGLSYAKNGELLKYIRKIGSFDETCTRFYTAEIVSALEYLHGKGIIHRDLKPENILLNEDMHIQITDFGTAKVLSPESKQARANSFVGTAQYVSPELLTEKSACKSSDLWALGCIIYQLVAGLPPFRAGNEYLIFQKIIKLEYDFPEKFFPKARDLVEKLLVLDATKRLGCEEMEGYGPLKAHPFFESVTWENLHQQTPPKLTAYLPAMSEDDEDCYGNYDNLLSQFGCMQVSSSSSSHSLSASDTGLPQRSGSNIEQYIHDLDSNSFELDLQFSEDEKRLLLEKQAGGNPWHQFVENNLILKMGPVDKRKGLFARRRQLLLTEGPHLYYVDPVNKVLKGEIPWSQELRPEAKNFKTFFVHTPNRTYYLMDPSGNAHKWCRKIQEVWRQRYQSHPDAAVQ", "excerpt": "as §1"}, "[6]": {"molecular_target": "HIPK2 (Homo sapiens, UniProt Q9H2X6)", "excerpt": "as §1"}, "[7]": {"molecular_target": "T3, RPS6KA4(Kin.Dom.2-C-terminal) (Homo sapiens, UniProt O75676)", "T3 construct": "Kin.Dom.2-C-terminal", "excerpt": "as §1"}, "[8]": {"molecular_target": "TEC (Homo sapiens, UniProt P42680)", "sequence (P42680 whole entry)": "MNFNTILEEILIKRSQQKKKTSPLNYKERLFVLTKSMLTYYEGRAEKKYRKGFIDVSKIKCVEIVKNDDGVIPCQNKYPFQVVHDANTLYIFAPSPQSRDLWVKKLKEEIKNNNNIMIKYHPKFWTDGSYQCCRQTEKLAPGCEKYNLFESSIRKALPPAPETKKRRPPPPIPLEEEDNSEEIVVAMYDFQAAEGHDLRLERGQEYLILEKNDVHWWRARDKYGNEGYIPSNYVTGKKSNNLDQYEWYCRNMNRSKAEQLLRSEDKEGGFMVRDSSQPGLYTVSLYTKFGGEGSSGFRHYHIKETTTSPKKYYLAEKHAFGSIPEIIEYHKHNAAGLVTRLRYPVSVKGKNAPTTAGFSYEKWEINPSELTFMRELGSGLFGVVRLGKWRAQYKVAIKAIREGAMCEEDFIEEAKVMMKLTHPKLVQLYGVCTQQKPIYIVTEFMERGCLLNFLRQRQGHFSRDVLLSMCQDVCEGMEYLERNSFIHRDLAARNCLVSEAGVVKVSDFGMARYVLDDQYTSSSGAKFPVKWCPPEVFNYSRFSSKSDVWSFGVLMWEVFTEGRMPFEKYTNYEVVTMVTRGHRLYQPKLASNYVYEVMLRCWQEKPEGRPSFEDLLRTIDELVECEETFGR", "excerpt": "as §1"}, "[9]": {"molecular_target": "KIT(V559D) (Homo sapiens, UniProt P10721, V559D)", "sequence (P10721 whole entry V559D)": "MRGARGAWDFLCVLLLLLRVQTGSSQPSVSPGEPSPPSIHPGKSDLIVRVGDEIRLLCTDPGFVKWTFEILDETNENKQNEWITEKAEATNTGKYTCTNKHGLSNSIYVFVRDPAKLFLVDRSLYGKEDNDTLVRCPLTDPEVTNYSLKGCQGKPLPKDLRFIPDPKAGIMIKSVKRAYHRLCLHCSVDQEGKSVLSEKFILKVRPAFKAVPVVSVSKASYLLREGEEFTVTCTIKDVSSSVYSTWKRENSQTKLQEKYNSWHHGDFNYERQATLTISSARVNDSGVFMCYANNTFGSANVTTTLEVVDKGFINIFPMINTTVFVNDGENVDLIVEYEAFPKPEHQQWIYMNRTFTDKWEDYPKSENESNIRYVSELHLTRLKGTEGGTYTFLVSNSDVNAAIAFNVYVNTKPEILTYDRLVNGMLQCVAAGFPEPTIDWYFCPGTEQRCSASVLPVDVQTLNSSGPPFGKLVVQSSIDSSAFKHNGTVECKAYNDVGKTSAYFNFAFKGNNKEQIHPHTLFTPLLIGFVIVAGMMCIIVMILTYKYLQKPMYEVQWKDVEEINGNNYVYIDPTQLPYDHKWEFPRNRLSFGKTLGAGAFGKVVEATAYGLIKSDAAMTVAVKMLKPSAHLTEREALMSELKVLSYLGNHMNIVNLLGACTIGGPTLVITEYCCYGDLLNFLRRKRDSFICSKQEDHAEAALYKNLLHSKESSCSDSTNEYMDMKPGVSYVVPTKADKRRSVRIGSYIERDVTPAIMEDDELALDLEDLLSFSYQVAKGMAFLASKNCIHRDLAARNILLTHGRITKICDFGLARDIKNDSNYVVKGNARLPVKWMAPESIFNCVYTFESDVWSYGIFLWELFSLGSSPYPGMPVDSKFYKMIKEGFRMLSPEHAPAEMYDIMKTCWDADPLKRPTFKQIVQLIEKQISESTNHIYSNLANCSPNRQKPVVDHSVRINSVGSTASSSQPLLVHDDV", "excerpt": "as §1"}, "[10]": {"molecular_target": "CSNK1G2 (Homo sapiens, UniProt P78368)", "sequence (P78368 whole entry)": "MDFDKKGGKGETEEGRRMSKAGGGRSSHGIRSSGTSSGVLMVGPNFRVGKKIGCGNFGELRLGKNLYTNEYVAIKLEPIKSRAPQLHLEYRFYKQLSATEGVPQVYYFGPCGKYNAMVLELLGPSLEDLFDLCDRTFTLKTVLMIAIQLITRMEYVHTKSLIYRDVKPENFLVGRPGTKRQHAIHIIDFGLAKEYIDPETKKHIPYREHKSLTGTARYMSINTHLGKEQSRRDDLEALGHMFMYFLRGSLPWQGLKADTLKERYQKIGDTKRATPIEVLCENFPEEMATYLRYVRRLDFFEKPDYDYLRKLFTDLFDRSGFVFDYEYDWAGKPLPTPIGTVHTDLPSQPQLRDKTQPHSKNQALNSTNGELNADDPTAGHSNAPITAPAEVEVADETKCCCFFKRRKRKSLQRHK", "excerpt": "as §1"}, "[11]": {"molecular_target": "T4, ERK4 (Homo sapiens, UniProt P31152)", "T4 construct": "gene MAPK4", "excerpt": "as §1"}, "[12]": {"molecular_target": "T5, RSK3(Kin.Dom.1-N-terminal) (Homo sapiens, UniProt Q15349)", "T5 construct": "gene RPS6KA2; Kin.Dom.1-N-terminal", "excerpt": "as §1"}, "[13]": {"molecular_target": "LYN (Homo sapiens, UniProt P07948)", "excerpt": "as §1"}, "[14]": {"molecular_target": "T6, LOK (Homo sapiens, UniProt O94804)", "T6 construct": "gene STK10", "excerpt": "as §1"}, "[15]": {"molecular_target": "SRC (Homo sapiens, UniProt P12931)", "excerpt": "as §1"}, "[16]": {"molecular_target": "CSK (Homo sapiens, UniProt P41240)", "sequence (P41240 whole entry)": "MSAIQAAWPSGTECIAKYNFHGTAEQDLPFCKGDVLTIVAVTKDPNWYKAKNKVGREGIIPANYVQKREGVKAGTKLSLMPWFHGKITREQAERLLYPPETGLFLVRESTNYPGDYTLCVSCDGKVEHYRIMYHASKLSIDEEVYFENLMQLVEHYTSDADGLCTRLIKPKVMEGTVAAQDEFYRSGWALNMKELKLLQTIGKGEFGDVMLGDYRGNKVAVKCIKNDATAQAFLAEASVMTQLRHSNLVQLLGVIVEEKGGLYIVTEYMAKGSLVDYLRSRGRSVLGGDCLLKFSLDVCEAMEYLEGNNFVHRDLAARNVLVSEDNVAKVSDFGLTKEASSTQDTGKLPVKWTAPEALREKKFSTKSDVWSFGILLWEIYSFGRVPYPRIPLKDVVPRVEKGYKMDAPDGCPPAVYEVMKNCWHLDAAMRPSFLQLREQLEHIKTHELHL", "excerpt": "as §1"}, "[17]": {"molecular_target": "PAK4 (Homo sapiens, UniProt O96013)", "sequence (O96013 whole entry)": "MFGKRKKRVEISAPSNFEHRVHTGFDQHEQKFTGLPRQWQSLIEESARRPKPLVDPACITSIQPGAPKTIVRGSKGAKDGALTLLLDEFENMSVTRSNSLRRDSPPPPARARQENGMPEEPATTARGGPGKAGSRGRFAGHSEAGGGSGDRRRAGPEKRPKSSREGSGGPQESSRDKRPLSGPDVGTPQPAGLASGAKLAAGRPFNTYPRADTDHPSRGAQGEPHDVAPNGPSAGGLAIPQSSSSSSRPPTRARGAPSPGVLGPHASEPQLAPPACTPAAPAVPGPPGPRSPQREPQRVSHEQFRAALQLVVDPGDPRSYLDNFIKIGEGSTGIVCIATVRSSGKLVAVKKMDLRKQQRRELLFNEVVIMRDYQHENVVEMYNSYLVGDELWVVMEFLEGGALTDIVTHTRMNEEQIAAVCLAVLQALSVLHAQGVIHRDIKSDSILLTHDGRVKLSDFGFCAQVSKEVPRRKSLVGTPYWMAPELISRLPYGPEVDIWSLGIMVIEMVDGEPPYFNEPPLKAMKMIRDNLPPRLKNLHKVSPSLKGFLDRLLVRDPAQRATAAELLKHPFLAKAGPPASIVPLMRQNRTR", "excerpt": "as §1"}, "[18]": {"molecular_target": "FGFR2 (Homo sapiens, UniProt P21802)", "excerpt": "as §1"}, "[19]": {"molecular_target": "SBK1 (Homo sapiens, UniProt Q52WX2)", "excerpt": "as §1"}, "[20]": {"molecular_target": "FLT3(ITD,F691L) (Homo sapiens, UniProt P36888, F691L/ITD)", "excerpt": "as §1"}, "[21]": {"molecular_target": "PRKCI (Homo sapiens, UniProt P41743)", "sequence (P41743 whole entry)": "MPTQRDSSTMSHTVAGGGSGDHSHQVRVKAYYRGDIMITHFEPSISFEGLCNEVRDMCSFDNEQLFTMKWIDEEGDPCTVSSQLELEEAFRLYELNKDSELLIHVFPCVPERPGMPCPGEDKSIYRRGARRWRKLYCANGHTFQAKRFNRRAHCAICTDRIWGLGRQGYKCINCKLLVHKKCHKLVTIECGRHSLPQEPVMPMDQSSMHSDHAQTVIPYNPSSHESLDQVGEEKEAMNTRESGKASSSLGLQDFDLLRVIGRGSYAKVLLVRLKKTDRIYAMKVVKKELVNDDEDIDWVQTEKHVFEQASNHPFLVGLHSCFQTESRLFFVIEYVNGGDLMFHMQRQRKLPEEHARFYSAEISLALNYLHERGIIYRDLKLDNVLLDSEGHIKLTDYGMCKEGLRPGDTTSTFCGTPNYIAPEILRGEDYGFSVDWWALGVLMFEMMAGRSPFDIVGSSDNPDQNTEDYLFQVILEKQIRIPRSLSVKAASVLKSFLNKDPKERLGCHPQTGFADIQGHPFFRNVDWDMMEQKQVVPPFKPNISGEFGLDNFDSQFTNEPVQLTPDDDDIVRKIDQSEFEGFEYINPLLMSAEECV", "excerpt": "as §1"}, "[22]": {"molecular_target": "MYLK2 (Homo sapiens, UniProt Q9H1R3)", "excerpt": "as §1"}, "[23]": {"molecular_target": "T7, SgK110 (Homo sapiens, UniProt P0C264)", "T7 construct": "gene SBK3", "excerpt": "as §1"}, "[24]": {"molecular_target": "T8, YANK1 (Homo sapiens, UniProt Q8WU08)", "T8 construct": "gene STK32A", "excerpt": "as §1"}}, "data": [{"smiles": "Cn1c(=O)[nH]c2ccc(-c3cccc(C(=O)NC4CCn5ccnc5C4)c3)cc21", "note": "(stereo not drawn) [Z36-MP5]", "values": [{"measurement": "remaining binding at 1 µM", "setting": "[1]", "result": 92, "unit": "%"}, {"measurement": "remaining binding at 1 µM", "setting": "[2]", "result": 98, "unit": "%"}, {"measurement": "remaining binding at 1 µM", "setting": "[3]", "result": 67, "unit": "%"}, {"measurement": "remaining binding at 1 µM", "setting": "[4]", "result": 54, "unit": "%"}, {"measurement": "remaining binding at 1 µM", "setting": "[5]", "result": 97, "unit": "%"}, {"measurement": "remaining binding at 1 µM", "setting": "[6]", "result": 64, "unit": "%"}, {"measurement": "remaining binding at 1 µM", "setting": "[7]", "result": 59, "unit": "%"}, {"measurement": "remaining binding at 1 µM", "setting": "[8]", "result": 98, "unit": "%"}, {"measurement": "remaining binding at 1 µM", "setting": "[9]", "result": 90, "unit": "%"}, {"measurement": "remaining binding at 1 µM", "setting": "[10]", "result": 86, "unit": "%"}, {"measurement": "remaining binding at 1 µM", "setting": "[11]", "result": 91, "unit": "%"}, {"measurement": "remaining binding at 1 µM", "setting": "[12]", "result": 93, "unit": "%"}, {"measurement": "remaining binding at 1 µM", "setting": "[13]", "result": 77, "unit": "%"}, {"measurement": "remaining binding at 1 µM", "setting": "[14]", "result": 90, "unit": "%"}, {"measurement": "remaining binding at 1 µM", "setting": "[15]", "result": 97, "unit": "%"}, {"measurement": "remaining binding at 1 µM", "setting": "[16]", "result": 98, "unit": "%"}, {"measurement": "remaining binding at 1 µM", "setting": "[17]", "result": 41, "unit": "%"}, {"measurement": "remaining binding at 1 µM", "setting": "[18]", "result": 37, "unit": "%"}, {"measurement": "remaining binding at 1 µM", "setting": "[19]", "result": 74, "unit": "%"}, {"measurement": "remaining binding at 1 µM", "setting": "[20]", "result": 57, "unit": "%"}, {"measurement": "remaining binding at 1 µM", "setting": "[21]", "result": 71, "unit": "%"}, {"measurement": "remaining binding at 1 µM", "setting": "[22]", "result": 96, "unit": "%"}, {"measurement": "remaining binding at 1 µM", "setting": "[23]", "result": 97, "unit": "%"}, {"measurement": "remaining binding at 1 µM", "setting": "[24]", "result": 95, "unit": "%"}]}]}
